This passage reports IC50 and solubility results from ChEMBL document CHEMBL1250549, “N-phenyl-N'-[4-(5H-pyrrolo[3,2-d]pyrimidin-4-yloxy)phenyl]ureas as novel inhibitors of VEGFR and FGFR kinases” (Bioorg Med Chem, 2010).

Converted amounts (≈) assume the structure as drawn.

The target in data set [1] is Vascular endothelial growth factor receptor 2 (Homo sapiens, UniProt P35968). Put plainly: Inhibition of His-tagged human VEGFR2 expressed in Sf9 cells.
The target of data set [2] is T1, Fibroblast growth factor receptor 1 (Homo sapiens, UniProt P11362). Description: Inhibition of His-tagged human FGFR1 expressed in Sf9 cells.
T1 sequence (P11362 whole entry): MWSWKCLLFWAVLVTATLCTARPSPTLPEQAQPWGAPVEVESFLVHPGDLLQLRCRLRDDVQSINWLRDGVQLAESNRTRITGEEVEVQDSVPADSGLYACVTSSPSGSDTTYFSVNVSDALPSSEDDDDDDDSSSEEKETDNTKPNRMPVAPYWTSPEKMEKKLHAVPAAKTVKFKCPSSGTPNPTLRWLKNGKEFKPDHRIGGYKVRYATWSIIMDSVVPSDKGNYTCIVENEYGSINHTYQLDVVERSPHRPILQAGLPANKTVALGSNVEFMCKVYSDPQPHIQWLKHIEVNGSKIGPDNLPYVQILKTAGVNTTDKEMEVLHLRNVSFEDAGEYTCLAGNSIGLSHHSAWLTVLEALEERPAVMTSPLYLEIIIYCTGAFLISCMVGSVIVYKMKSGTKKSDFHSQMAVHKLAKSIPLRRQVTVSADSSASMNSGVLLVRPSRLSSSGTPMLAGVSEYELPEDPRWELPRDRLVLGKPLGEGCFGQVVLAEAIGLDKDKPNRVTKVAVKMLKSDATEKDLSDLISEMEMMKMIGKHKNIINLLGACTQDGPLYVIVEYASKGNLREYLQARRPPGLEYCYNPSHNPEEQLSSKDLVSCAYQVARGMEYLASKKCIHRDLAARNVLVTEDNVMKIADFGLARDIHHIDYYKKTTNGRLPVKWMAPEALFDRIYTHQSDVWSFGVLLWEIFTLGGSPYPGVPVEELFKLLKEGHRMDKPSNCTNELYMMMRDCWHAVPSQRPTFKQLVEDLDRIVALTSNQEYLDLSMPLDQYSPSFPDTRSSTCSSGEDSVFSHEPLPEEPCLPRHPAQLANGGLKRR
Data set [3] in a line: Inhibition of VEGFR.
A short description of data set [4]: Inhibition of PDGFR.
A further data set deals with Angiopoietin-1 receptor (Homo sapiens, UniProt Q02763). Description: Inhibition of Tie-2.
Chain of Angiopoietin-1 receptor (Q02763 whole entry): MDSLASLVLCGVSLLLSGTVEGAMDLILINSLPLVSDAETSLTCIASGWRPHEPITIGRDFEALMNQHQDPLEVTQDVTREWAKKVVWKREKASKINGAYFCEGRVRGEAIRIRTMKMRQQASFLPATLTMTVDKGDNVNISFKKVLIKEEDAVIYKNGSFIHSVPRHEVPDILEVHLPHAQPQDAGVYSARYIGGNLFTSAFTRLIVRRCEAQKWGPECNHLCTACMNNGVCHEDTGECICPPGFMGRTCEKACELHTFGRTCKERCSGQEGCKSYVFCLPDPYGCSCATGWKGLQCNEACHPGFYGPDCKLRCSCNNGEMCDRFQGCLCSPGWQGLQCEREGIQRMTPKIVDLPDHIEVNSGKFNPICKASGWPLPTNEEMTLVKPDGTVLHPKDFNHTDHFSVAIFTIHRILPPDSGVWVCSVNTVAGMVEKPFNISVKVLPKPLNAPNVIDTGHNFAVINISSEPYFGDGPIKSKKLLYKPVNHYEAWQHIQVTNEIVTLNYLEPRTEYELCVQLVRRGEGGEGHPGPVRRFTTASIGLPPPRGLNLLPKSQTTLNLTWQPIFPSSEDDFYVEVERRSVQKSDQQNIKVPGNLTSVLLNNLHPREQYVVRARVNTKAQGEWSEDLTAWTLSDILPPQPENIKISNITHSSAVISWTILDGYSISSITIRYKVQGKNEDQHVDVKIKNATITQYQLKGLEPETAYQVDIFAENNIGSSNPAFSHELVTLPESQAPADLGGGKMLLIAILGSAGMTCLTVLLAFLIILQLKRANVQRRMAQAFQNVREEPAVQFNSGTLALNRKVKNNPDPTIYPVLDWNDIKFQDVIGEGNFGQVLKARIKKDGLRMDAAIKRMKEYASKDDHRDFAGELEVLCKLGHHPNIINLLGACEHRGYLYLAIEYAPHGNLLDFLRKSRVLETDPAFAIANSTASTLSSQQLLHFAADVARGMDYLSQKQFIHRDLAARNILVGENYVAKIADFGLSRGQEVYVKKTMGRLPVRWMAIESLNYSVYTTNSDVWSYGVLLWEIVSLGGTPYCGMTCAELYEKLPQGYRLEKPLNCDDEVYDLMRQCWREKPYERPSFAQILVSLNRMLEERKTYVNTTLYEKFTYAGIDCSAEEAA
In data set [5] the target is T1, Fibroblast growth factor receptor 1. Put plainly: Inhibition of FGFR1.
For data set [6], the system named is HUVEC. Put plainly: Antiproliferative activity against HUVEC cells assessed as inhibition of VEGF-stimulated proliferation after 5 days by WST-8 assay. As to conditions: Homo sapiens, 120 h. On the technique in general: Tetrazolium dyes change colour on reduction, which living cells bring about.
Data set [7] concerns HUVEC. Description: Antiproliferative activity against HUVEC cells assessed as inhibition of FGF-stimulated proliferation after 5 days by WST-8 assay. As to conditions: Homo sapiens, 120 h.
Data set [8] can be described thus: Solubility of the compound at pH 6.8. In kind it is physicochemical. Particulars: buffer.

Chain of Vascular endothelial growth factor receptor 2 (P35968 whole entry): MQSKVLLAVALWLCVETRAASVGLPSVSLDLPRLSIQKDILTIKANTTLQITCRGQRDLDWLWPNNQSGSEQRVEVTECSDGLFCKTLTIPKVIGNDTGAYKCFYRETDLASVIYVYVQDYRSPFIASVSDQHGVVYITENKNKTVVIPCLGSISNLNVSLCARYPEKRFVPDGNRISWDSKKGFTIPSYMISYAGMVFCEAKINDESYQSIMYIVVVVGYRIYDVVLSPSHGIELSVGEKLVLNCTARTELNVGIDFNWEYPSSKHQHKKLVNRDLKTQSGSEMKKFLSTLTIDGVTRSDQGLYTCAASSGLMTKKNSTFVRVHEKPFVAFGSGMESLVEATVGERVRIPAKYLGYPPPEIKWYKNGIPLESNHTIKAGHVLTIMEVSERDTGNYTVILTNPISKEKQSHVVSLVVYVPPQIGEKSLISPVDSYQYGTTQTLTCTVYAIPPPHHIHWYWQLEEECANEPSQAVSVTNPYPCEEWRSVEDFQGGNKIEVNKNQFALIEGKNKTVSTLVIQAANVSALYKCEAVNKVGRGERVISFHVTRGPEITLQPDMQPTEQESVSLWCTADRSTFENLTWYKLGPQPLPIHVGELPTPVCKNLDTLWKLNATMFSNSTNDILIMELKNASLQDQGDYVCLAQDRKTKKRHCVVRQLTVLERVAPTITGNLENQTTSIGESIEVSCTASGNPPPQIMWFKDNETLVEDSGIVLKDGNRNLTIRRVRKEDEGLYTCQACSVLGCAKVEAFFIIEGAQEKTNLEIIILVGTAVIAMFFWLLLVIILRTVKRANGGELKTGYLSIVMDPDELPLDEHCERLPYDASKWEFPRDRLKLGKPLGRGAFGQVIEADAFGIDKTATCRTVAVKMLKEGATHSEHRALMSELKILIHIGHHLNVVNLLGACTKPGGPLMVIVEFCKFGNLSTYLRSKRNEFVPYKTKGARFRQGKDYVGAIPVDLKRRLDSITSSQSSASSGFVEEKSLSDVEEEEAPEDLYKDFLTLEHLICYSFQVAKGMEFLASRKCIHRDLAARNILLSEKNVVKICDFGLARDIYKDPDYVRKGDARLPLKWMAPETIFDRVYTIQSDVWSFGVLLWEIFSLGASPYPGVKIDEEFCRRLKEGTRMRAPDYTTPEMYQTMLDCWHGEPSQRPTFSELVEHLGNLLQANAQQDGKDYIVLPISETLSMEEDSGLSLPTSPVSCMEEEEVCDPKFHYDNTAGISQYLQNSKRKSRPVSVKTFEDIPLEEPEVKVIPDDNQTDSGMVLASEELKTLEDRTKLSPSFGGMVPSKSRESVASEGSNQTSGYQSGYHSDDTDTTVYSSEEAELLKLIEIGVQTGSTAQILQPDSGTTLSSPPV

The compound `Cn1ccc2ncnc(Oc3ccc(NC(=O)Nc4ccc(N5CCOCC5)c(C(F)(F)F)c4)c(Cl)c3)c21` returned an IC50 in data set [1] of 0.061 µM.
Same read-out and setting: the result for `O=C(Nc1cccc(C(F)(F)F)c1)Nc1ccc(Oc2ncnc3ccn(CCOCCO)c23)cc1Cl` reads 0.0027 µM.
As for `Cn1ccc2ncnc(Oc3ccc(NC(=O)Nc4ccccn4)c(Cl)c3)c21`, the IC50 was 0.21 µM in data set [1] and above 10 µM in [2].
`Cn1ccc2ncnc(Oc3ccc(NC(=O)Nc4cncc(C(F)(F)F)c4)c(Cl)c3)c21`: the IC50 in data set [1] turned out to be 0.0029 µM.
As to `Cn1ccc2ncnc(Oc3ccc(NC(=O)Nc4ccncc4)c(Cl)c3)c21`, the IC50 in data set [1] is 0.65 µM; in data set [2], above 10 µM.
Regarding `Cn1ccc2ncnc(Oc3ccc(NC(=O)Nc4cccc(C(F)(F)F)c4)c(F)c3)c21`, the half-inhibitory concentration (IC50) in data set [2] was above 10 µM; in [3] it was below 0.1 µM; in data set [4], below 0.1 µM; against Angiopoietin-1 receptor, below 0.1 µM; in data set [5], above 10 µM.
Compound `Cn1ccc2ncnc(Oc3ccc(NC(=O)Nc4ccnc(C(F)(F)F)c4)c(Cl)c3)c21` returned a half-maximal inhibitory concentration (IC50) in data set [1] of 0.0038 µM.
The same measure, in the same setting: then `O=C(Nc1cccc(C(F)(F)F)c1)Nc1ccc(Oc2ncnc3ccn(CCO)c23)cc1Cl`, with 0.004 µM; and `Cn1ccc2ncnc(Oc3ccc(NC(=O)Nc4cc(N5CCOCC5)cc(C(F)(F)F)c4)c(Cl)c3)c21`, with 0.06 µM; and `CN1CCN(Cc2cc(NC(=O)Nc3ccc(Oc4ncnc5ccn(C)c45)cc3Cl)cc(C(F)(F)F)c2)CC1`, with 0.011 µM.
On to `Cn1ccc2ncnc(Oc3ccc(NC(=O)Nc4cccnc4)c(Cl)c3)c21`, for which the concentration for half-maximal inhibition (IC50) is 0.23 µM in [1] and above 10 µM in data set [2].
Turning to `Cn1ccc2ncnc(Oc3ccc(NC(=O)Nc4cc(C(C)(C)C)on4)c(Cl)c3)c21`, the 50% inhibitory concentration (IC50) in [1] turned out to be 0.0089 µM.
Same read-out and setting: then `Cn1ccc2ncnc(Oc3ccc(NC(=O)Nc4cnn(C(C)(C)C)c4)c(Cl)c3)c21`, with 0.0076 µM; and `Cn1ccc2ncnc(Oc3ccc(NC(=O)Nc4cc(CN5CCOCC5)cc(C(F)(F)F)c4)c(Cl)c3)c21`, with 0.023 µM; and `COc1ccc(NC(=O)Nc2ccc(Oc3ncnc4ccn(C)c34)cc2Cl)cc1C(F)(F)F`, with 0.0094 µM.
Turning to `CN1CCN(Cc2ccc(NC(=O)Nc3ccc(Oc4ncnc5ccn(C)c45)cc3Cl)cc2C(F)(F)F)CC1`, the IC50 in data set [1] was 0.0093 µM; in the data set with HUVEC [6], 0.038 µM; in the data set on HUVEC [7], 0.02 µM. The same compound displayed a solubility in [8] of 19 µg/mL (≈ 33.1 µM).
Regarding `Cn1ccc2ncnc(Oc3ccc(NC(=O)Nc4ccc(CN5CCOCC5)c(C(F)(F)F)c4)c(Cl)c3)c21`, the 50% inhibitory concentration (IC50) in [1] stood at 0.019 µM.
Take `Cn1ccc2ncnc(Oc3ccc(NC(=O)Nc4cccc(C(F)(F)F)c4)c(Cl)c3)c21`: in the data set with HUVEC [7], the 50% inhibitory concentration (IC50) turned out to be 0.23 µM. Besides, the concentration in solution in data set [8] (solubility) was 0.09 µg/mL (≈ 0.195 µM).
In data set [1], `COCc1cc2ncnc(Oc3ccc(NC(=O)Nc4cccc(C(F)(F)F)c4)c(Cl)c3)c2n1C` came in with an IC50 of 0.014 µM.
On the same count and under the same terms, then `Cn1nc(C(C)(C)C)cc1NC(=O)Nc1ccc(Oc2ncnc3ccn(C)c23)cc1Cl`, with 0.019 µM; and `Cn1ccc2ncnc(Oc3ccc(NC(=O)Nc4cc(C(F)(F)F)ccn4)c(Cl)c3)c21`, with 0.0027 µM.
On the same count and under the same terms, the result for `CN1CCC(Oc2ccc(NC(=O)Nc3ccc(Oc4ncnc5ccn(C)c45)cc3Cl)cc2C(F)(F)F)CC1` reads 0.012 µM; that for `Cn1c(CO)cc2ncnc(Oc3ccc(NC(=O)Nc4cccc(C(F)(F)F)c4)c(Cl)c3)c21`, 0.0097 µM.
In [1], `COCCn1ccc2ncnc(Oc3ccc(NC(=O)Nc4cccc(C(F)(F)F)c4)c(Cl)c3)c21` displayed an IC50 of 0.009 µM.
The same measure, in the same setting: then `Cn1ccc2ncnc(Oc3ccc(NC(=O)Nc4cnn(CC(F)(F)F)c4)c(Cl)c3)c21`, with 0.004 µM; and `COc1cc(NC(=O)Nc2ccc(Oc3ncnc4ccn(C)c34)cc2Cl)cc(C(F)(F)F)c1`, with 0.02 µM; and `Cn1c(C(C)(C)O)cc2ncnc(Oc3ccc(NC(=O)Nc4cccc(C(F)(F)F)c4)c(Cl)c3)c21`, with 0.018 µM.

Broadly, the IC50 is the concentration needed to halve the response being measured. Broadly, the solubility is the dissolved amount per volume that the medium holds. High values mean much dissolved substance, low ones little dissolved substance.
